IC50 data for nine molecules are collected here from publication PMC9850456, “Click-designed vanilloid-triazole conjugates as dual inhibitors of AChE and Aβ aggregation” (RSC Advances, 2023).

By IC50 is commonly meant the concentration that gives 50% inhibition.

SMILES strings stand for the structures.

One experiment addresses T1, Beta-Amyloid (1–42) (Homo sapiens, UniProt P05067).
T1 construct: SensoLyte® Thioflavin T Beta-Amyloid (1–42) Aggregation Kit; purchased ANASPEC Inc., Fremont, CA, USA
In words: biochemical. As to conditions: Aβ aggregation, Thioflavin T; mean ± standard deviation; read-out: IC50 ± SD Aβ42 inhibition. As to the method:
The β-amyloid aggregation inhibition was measured using the fluorometric SensoLyte® Thioflavin T Beta-Amyloid (1–42) Aggregation Kit (ANASPEC Inc., Fremont, CA., USA) according to the manufacturer's instructions. […]
2. In Vitro Amyloid-β Aggregation Assay
Amyloid-β (1–42) aggregation was measured using the SensoLyte ® Thioflavin T β-Amyloid aggregation kit (AnaSpec, Fremont, CA, USA) 2, according to the manufacturer’s instructions. The assay is based on the property of the Thioflavin T dye, the fluorescence of which increases when it is bound to aggregates of amyloid-β (1 –42) peptides. Briefly, Thioflavin T was dissolved in assay buffer [10 mM Phosphate/150 mM NaCl (pH=8.0)] and used at a concentration of 100 μM. Samples were dissolved in assay buffer, 5 μL of the sample and 85 μL of amyloid-β (1–42) were mixed, followed by the addition of 10 μL of 2mM Thioflavin T.
Thioflavin T fluorescence was measured at intervals of 10 min for 2 h, with an excitation /emission =440 […]
All fluorescence readings are expressed in relative fluorescence units (RFU).
Morin was used as a positive control. Experiments were performed in triplicate and averaged, and the percentage of inhibition of amyloid-β aggregation was calculated according to the following equation:
% Relative Inhibition = (RFU of PC - RFU of S)/ ([…]) x 100
Where: PC, is the Peptide Positive Control or Solvent Control; S, is Sample Screen.
IC50 was generated by plotting the values of percent inhibition against their corresponding logarithmic concentration. Best fitted line was determined and IC50 was calculated from its equation.

The target in the next experiment is T2, hAChE (Homo sapiens, UniProt P22303).
T2 construct: purchased BioVision ('Bio Vision, Egypt' [sic]; address 155 S. Milpitas Blvd., Milpitas, CA) K197-100
T2 sequence (P22303 32-614): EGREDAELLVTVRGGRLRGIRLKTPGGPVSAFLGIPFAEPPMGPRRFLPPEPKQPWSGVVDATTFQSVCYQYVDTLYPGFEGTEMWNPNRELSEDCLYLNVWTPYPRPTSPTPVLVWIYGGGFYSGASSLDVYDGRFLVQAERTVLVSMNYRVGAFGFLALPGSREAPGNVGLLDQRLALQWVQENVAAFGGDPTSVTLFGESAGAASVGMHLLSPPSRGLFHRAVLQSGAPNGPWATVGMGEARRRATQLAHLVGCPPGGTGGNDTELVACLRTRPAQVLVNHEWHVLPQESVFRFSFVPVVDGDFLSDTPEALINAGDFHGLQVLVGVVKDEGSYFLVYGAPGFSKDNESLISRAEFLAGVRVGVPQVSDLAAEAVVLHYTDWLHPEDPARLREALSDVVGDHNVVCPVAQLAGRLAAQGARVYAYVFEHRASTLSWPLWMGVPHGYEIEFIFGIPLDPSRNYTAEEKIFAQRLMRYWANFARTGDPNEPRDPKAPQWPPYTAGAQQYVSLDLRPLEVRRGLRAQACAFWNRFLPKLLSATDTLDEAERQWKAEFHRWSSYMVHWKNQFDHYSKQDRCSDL
In words: biochemical. Conditions: mean ± standard deviation; read-out: IC50 ± SD AChE. As to the method: The synthesized compounds were assayed to determine their ability to inhibit hAChE using (K197-100, Bio Vision, Egypt)1. A 96-well plate was used by applying the spectroscopic method of Ellman1, and […]
The compounds were dissolved in a small amount of DMSO to obtain a concentration range of 0.01-10 μM. Each well contained 160 μl of dithiobis-(2-nitrobenzoic acid) (Ellman's reagent, DTNB), 10 μl of the tested compound and 50 μl hAChE solution, while Blank wells contained 160 μl DTNB, 10 μl DMSO, and 50 μl buffer (1 M, pH=8.0, Tris-HCl) . 100% ChE activity (100% activity) contained 160 μl DTNB, 2 μl DMSO, 8 μl buffer and 50 μl hAChE. After 5 min of incubation at 25 […]
Two time points (t1 and t2) in the linear range of the plot were chosen and the corresponding values for the absorbance (OD1 and OD2) were obtained.
The percentage of relative inhibition was calculated from the following equation:
% Relative Inhibition = Slope of[ EC]−Slope of [S] /Slope of[EC ] X100
% Relative Activity = Slope of [S] /Slope of [EC] X100
Where: S, is Sample Screen; EC, is Enzyme Control. […]

T1 sequence (P05067 672-713): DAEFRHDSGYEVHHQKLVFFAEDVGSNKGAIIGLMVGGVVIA

`COc1cc(Cn2cc(COc3ccc(C=O)cc3OC)nn2)ccc1O` [Compound 1, 4-((1-(3-methoxy-4-hydroxybenzyl)-1H-1,2,3-triazol-4-yl)methoxy)-3-methoxybenzaldehyde]: the IC50 was 4.85 ± 0.24 µM on Beta-Amyloid (1–42) and 14.2 ± 0.72 µM on hAChE.
Take `CCOC(=O)c1ccc(OCc2cn(Cc3ccc(O)c(OC)c3)nn2)c(OC)c1` [Compound 4, 4-((1-(3-methoxy-4-hydroxybenzyl)-1H-1,2,3-triazol-4-yl)methoxy)-3-methoxy-ethyl benzoate]: the IC50 on Beta-Amyloid (1–42) came out at 1.59 ± 0.08 µM; at hAChE, 2.11 ± 0.12 µM.
`COc1cc(Cn2cc(COc3ccc(C(=O)O)cc3OC)nn2)ccc1O` [Compound 5, 4-((1-(3-methoxy-4-hydroxybenzyl)-1H-1,2,3-triazol-4-yl)methoxy)-3-methoxybenzoic acid]: the IC50 on Beta-Amyloid (1–42) turned out to be 1.48 ± 0.07 µM; on hAChE, 2.11 µM.
For the molecule `CCOC(=O)C=Cc1ccc(OCc2cn(Cc3ccc(O)c(OC)c3)nn2)c(OC)c1` [Compound 6, ethyl 4-((1-(3-methoxy-4-hydroxybenzyl)-1H-1,2,3-triazol-4-yl)methoxy)-3-methoxyphenyl acrylate], the IC50 on Beta-Amyloid (1–42) turned out to be 3.06 ± 0.15 µM; on hAChE, 2.52 ± 0.13 µM.
With `COc1cc(Cn2cc(COc3ccc(C=CC=O)cc3OC)nn2)ccc1O` [Compound 3, 4-((1-(3-methoxy-4-hydroxybenzyl)-1H-1,2,3-triazol-4-yl)methoxy)-3-methoxyphenyl acrylaldehyde], the IC50 on Beta-Amyloid (1–42) worked out at 2.86 ± 0.14 µM; on hAChE, 5.53 ± 0.28 µM.
On to `COc1cc(/C=C/C(=O)OCc2cn(Cc3ccc(O)c(OC)c3)nn2)ccc1O` [Compound 9, (E)-(1-(4-hydroxy-3-methoxybenzyl)-1H-1,2,3-triazol-4-yl)methyl 3-(4-hydroxy-3 methoxyphenyl)acrylate], for which the IC50 on Beta-Amyloid (1–42) was determined as 0.31 ± 0.02 µM; at hAChE, 0.47 ± 0.02 µM.
As for `COc1cc(Cn2cc(COC(=O)c3ccc(O)c(OC)c3)nn2)ccc1O` [Compound 8, (1-(4-hydroxy-3-methoxybenzyl)-1H-1,2,3-triazol-4-yl)methyl 4-hydroxy-3-methoxy benzoate], the IC50 on Beta-Amyloid (1–42) is 0.95 ± 0.05 µM; at hAChE, 1.2 ± 0.06 µM.
As to `C=CCc1ccc(OCc2cn(Cc3ccc(O)c(OC)c3)nn2)c(OC)c1` [Compound 2, 4-((4-((4-allyl-2-methoxyphenoxy)methyl)-1H-1,2,3-triazol-1-yl)methyl)-2-methoxyphenol], the IC50 on Beta-Amyloid (1–42) was determined as 22.7 ± 1.14 µM; at hAChE, 26.8 ± 1.35 µM.
As for `COc1cc(Cn2cc(COc3ccc(C=CC(=O)O)cc3OC)nn2)ccc1O` [Compound 7, 4-((1-(3-methoxy-4-hydroxybenzyl)-1H-1,2,3-triazol-4-yl)methoxy)-3-methoxyphenyl acrylic acid], the IC50 came out at 4.48 ± 0.22 µM at Beta-Amyloid (1–42) and 10.6 ± 0.53 µM at hAChE.
